Experimental data published in paper PMC10404663 (The Journal of Biological Chemistry, 2023).
Blank lines part the entries; values can stand above or below the molecule they belong to.

How the values were obtained:
[1] = target: T1, RocB (Bacillus subtilis, UniProt P39635); experiment: coupled RocB-RocD assay, P5C-o-aminobenzaldehyde complex at […] nm; format: biochemical; conditions: 2 mM MnCl2, PBS, 25 °C, 1 µM RocD, 10 mM 2-oxoglutarate, 80 µM PLP
T1 sequence (P39635 1-566): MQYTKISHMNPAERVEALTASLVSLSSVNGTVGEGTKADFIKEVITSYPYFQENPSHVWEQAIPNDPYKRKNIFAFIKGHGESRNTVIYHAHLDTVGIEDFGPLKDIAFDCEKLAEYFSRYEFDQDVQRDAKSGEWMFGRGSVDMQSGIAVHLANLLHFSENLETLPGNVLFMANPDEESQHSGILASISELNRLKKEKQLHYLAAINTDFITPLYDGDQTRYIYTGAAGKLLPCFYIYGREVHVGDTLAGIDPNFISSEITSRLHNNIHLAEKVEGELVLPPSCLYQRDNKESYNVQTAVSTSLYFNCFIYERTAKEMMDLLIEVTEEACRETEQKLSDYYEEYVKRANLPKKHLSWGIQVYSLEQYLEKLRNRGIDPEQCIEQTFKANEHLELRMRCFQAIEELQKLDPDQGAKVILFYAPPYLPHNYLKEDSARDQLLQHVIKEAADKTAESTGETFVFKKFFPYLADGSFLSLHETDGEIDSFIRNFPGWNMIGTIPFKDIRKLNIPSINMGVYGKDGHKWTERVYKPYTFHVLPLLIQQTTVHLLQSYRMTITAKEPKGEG

[2] = target: truncated RocR (RocR^trunc, central domain) (Bacillus subtilis, UniProt P38022); conditions: 15 mM ATP, 15 mM MgCl2, pH 7.5, room temperature, no effector
[3] = target: the molecule itself; experiment: dynamic light scattering

KM [1]: 7.355 mM l^-1
Molecule: NC(=O)NCCC[C@H](N)C(=O)O [citrulline]

Molecule: Nc1ncnc2c1ncn2[C@@H]1O[C@H](COP(=O)(O)OP(=O)(O)OP(=O)(O)O)[C@@H](O)[C@H]1O [ATP]
kobs [2]: the truncated protein was active irrespective of the presence of potential effector molecules

B1: RocR, transcription activator of the roc genes (6xHis-RocR) (natural protein, Bacillus subtilis, UniProt P38022 1-461, looked up)
chain: MVKDSEFLTLVFQSILDEIDVGLHVVDEHGNTIVYNNKMMQIEDMEKHDVLNKNLMDVFMFSKQQDSTLVQALQEGKTIKNVKQSYFNNKGQEITTINHTYPIVQDGKIRGAVEIAKDVTKLERLIRENMNKKGSTTYTFDSILGTSPAIQDVIENAKRATRTSSSVLLAGETGTGKELFAQSIHNGSDRSGGPFISQNCAALPDSLVESILFGTKKGAFTGAVDQPGLFEQAHGGTLLLDEINSLNLSLQAKLLRALQERKIRRIGSTKDTPIDVRIIATMNEDPIDAIAGERMRKDLYYRLSVVTLIIPPLRERKEDILLLASEFIQKNNHLFQMNVEHISDDVKQFFLSYDWPGNIRELEHMIEGAMNFMTDEQTITASHLPYQYRMKIKPADIPEPETPRHQPAADLKEKMESFEKYVIENVLRKHGHNISKAAQELGISRQSLQYRLKKFSHSSNE
stoichiometry N [3]: ~2
